From patent publication US9695132B2, “Heteroaryl compounds and uses thereof” (Celgene CAR LLC, priority 2013, dated 2017)
“Also recorded” adds a separate entry of the source. Where two headings read alike, the source gives them in different places.

Legend:
[1] = molecular target: FGFR4 in MDA-MB-453 cells (Homo sapiens, UniProt P22455); assay: Target occupancy assay with biotinylated covalent probe I-127; assay type: cell-based
Protocol: In order to assess free FGFR4 protein a biotinylated covalent probe was utilized. […] The reaction was incubated for 2 hr at room temperature. The samples and probe mixture were transferred to a FGFR4-coated MSD plate for 2 hr at room temperature. MSD signals were obtained with an anti-streptavidin Sulfo-tag (Meso Scale) antibody for 1 hr at room temperature. […] If a compound completely (100%) covalently modies FGFR4 no free FGFR4 should be available for covalent modification by the biotinylated probe and subsequent binding to streptavidin and detection.

[2] = molecular target: FGFR4-WT (Homo sapiens (Human), UniProt P22455); assay: Omnia assay for potency assessment against FGFR4 enzyme; assay type: biochemical
FGFR4-WT, sequence (P22455 22-802): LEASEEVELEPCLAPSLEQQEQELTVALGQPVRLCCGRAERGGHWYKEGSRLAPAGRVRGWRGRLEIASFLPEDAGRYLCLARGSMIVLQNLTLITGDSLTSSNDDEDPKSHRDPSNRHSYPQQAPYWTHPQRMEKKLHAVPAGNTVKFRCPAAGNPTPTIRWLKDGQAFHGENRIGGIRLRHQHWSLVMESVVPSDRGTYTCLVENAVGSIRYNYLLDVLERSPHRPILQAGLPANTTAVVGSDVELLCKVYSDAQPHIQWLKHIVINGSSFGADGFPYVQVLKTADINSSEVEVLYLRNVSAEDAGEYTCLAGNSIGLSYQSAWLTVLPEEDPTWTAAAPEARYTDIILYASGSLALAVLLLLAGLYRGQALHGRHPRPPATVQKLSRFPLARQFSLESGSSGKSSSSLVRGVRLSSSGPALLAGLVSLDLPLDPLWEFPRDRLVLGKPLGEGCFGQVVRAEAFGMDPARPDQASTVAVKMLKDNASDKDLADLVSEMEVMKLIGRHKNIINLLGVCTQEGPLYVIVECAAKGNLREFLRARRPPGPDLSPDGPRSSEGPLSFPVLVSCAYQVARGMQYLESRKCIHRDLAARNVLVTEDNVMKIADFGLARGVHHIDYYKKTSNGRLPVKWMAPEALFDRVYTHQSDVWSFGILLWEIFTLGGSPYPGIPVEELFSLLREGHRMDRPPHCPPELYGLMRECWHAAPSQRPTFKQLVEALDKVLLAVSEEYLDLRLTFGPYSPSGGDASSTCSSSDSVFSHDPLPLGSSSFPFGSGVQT
Protocol: A 10× stock solution of FGFR4-WT (PR4380C), (from Invitrogen, Carlsbad, Calif.) corresponding to method a in Table 7, was prepared as described below. Alternatively, a 10× stock solution of FGFR4-WT (F01-11G), (SignalChem, Richmond, BC) corresponding to method b in Table 7, was prepared as described below. A solution of 1.4×ATP (AS001A) and 5× Tyr-Sox conjugated peptide substrate (KNZ3101) were prepared in 1× kinase reaction buffer consisting of 20 mM Tris, pH 7.5, 5 mM MgCl2, 1 mM EGTA, 5 mM β-glycerophosphate, 5% glycerol (10× stock, KB002A) and 0.2 mM DTT (DS001A). […] The serially diluted compounds were prepared on a Tecan EVO100. A second addition of 10 μl of Tyr-Sox FGFR4 substrate was added to each well and the kinase reactions were started with the addition of 35 μL of 1.4×ATP. The reactions were monitored every 71 seconds for 240 minutes at λex360/λem485 in a Synergy plate reader from BioTek (Winooski, Vt.).

[3] = molecular target: pFGFR4 in Huh7 cells (Homo sapiens (Human), UniProt P22455); assay: FGFR4 signaling, Meso Scale assay (MSD), Method B, Huh7
pFGFR4 in Huh7 cells, sequence (P22455 22-802): as above
Protocol: Huh7 cells were grown in DMEM (Invitrogen, Carlsbad, Calif.) supplemented with 10% FBS (Invitrogen) and 1% Penicillin-Streptomycin (P/S, Lonza, Walkersville, Md.).
For the MSD and ELISA assays, total FGFR4 antibodies were obtained from R&D Systems (Minneapolis, Minn.) and used at 1:500. […] Phospho-FGFR antibodies were obtained from Cell Signaling (Danvers, Mass.) or R&D Systems and used at 1:1000. The phopho-FGFR antibody from Cell Signaling was used for immunoblotting, whereas the phopho-FGFR antibody from R&D was used for MSD and ELISA assays. Secondary antibodies were used at 1:10,000. The goat anti-mouse IgG IRDye 800CW antibody was obtained from LiCor Biosciences (Lincoln, Nebr.) and the goat anti-rabbit IgG Alexa Fluor 680 was obtained from Invitrogen. The anti-rabbit Sulfo-tag and anti-streptavidin Sulfo-tag antibodies was obtained from Meso Scale Discovery (Gaithersburg, Md.), and were used at 1:1000 and 1:5000, respectively.
After treatment, the cells were washed with cold PBS (Invitrogen), and were immediately lysed by freeze/thawing 3× in 32 μL of cold Cell Extraction Buffer (Invitrogen), which was supplemented with Complete Protease inhibitors (Roche) and PhosphoSTOP (Roche) phosphatase inhibitors.
MSD plates (Meso Scale Discovery) were coated with total FGFR-4 antibodies overnight at 4° C. A lysate (25 μL) was added to the MSD plate overnight at 4° C. The MSD signals were obtained by incubating with a phospho-FGFR antibody (R&D Systems) and an anti-rabbit sulfo-tag antibody (Meso Scale), for 2 hr at room temperature. […] The data was fitted using a sigmoidal curve analysis program (Graph Pad Prism version 5) with variable Hill slope to determine the EC50 values.

[4] = molecular target: pFGFR4 in MDA-MB-453 cells (Homo sapiens, UniProt P22455); assay: Washout experiment (pFGFR4 after compound removal); assay type: cell-based; settings: 1000-2000 nM for 1 hr, washed, followed up to 24 hr
pFGFR4 in MDA-MB-453 cells, sequence (P22455 22-802 limits assumed): as the sequence (P22455 22-802) above
Protocol: The cells were allowed to settle down for 4 hrs and were then maintained in low-serum (0.1% FBS) media overnight. The following morning, the media was removed and the cells were treated with 1000-2000 nM of test compound in low-serum media for 1 hr. The cells were washed free of test compound (3×) with PBS (Invitrogen). One set of cells was immediately lysed as indicated above as the 0 hr time point. The remaining cells were incubated with the appropriate complete growth media (10-20% FBS) for 1, 2, 4, 8, 16 (in certain circumstances) and 24 hr. DMSO (0.5%) controls were collected at all time points.

[5] = method a: [FGFR4-WT]=10 nM (Invitrogen), [ATP]=300 uM, [Y10-Sox]=10 uM
[6] = method b: [FGFR4-WT]=2.5 nM (SignalChem), [ATP]=250 uM, [Y10-Sox]=10 uM

FGFR4 in MDA-MB-453 cells, sequence (P22455 22-802 limits assumed): as the sequence (P22455 22-802) above

Row | Compound | IC50 [2, 5] | EC50 [3] | other results
1 | C=CC(=O)NC1CCCCC1Nc1ncc2c(n1)N(Cc1cccnc1)C(=O)N(c1c(Cl)c(OC)cc(OC)c1Cl)C2 (racemic) [Compound I-35] | – | – | EC50 [1]: 101 to 500 nM
2 | C=CC(=O)NC1CCCCC1Nc1ncc2c(n1)N(Cc1ccccc1)C(=O)N(c1c(Cl)c(OC)cc(OC)c1Cl)C2 (racemic) [Compound I-63] | – | – | EC50 [1]: 101 to 500 nM
3 | C=CC(=O)Nc1ccccc1Nc1ncc2c(n1)N(Cc1cscn1)C(=O)N(c1cc(OC)cc(OC)c1)C2 [Compound I-64] | < 100 nM | 101 to 500 nM | –
4 | C=CC(=O)Nc1ccccc1Nc1ncc2c(n1)N(Cc1cccc(F)c1)C(=O)N(c1c(Cl)c(OC)cc(OC)c1Cl)C2 [Compound I-12] | – | – | EC50 [1]: 101 to 500 nM; IC50 [2, 6]: 101 to 500 nM
5 | C=CC(=O)NC1COCC1Nc1ncc2c(n1)N(CC)C(=O)N(c1c(Cl)c(OC)cc(OC)c1Cl)C2 (centres unmarked) [Compound I-217] | < 100 nM | < 100 nM | –
6 | C=CC(=O)NC1CCCCC1Nc1ncc2c(n1)N(CC(F)F)C(=O)N(c1c(F)c(OC)cc(OC)c1F)C2 (centres unmarked) [Compound I-115] | 101 to 500 nM | 101 to 500 nM | –
7 | C=CC(=O)NC1COCC1Nc1ncc2c(n1)N(C)C(=O)N(c1ccc(OC)cc1)C2 (centres unmarked) [Compound I-209] | > 1000 nM | > 1000 nM | –
8 | C=CC(=O)N[C@H]1CCCC[C@H]1Nc1ncc2c(n1)N(C)C(=O)N(c1c(Cl)c(OCC)cc(OCC)c1Cl)C2 [Compound I-219] | 101 to 500 nM | 501 to 999 nM | –
9 | CCC(=O)Nc1ccccc1Nc1ncc2c(n1)N(Cc1ccccc1)C(=O)N(c1c(Cl)c(OC)cc(OC)c1Cl)C2 [Compound I-236] | – | – | EC50 [1]: > 1000 nM; IC50 [2, 6]: 101 to 500 nM
10 | C=CC(=O)NC1CCCCC1Nc1ncc2c(n1)N(Cc1cscn1)C(=O)N(c1c(Cl)c(OC)cc(OC)c1Cl)C2 (racemic) [Compound I-69] | – | – | duration of action against pFGFR4 signalling after washout [4]: prolonged inhibition of autophosphorylation of FGFR4; also recorded: prolonged duration of action
11 | C=CC(=O)Nc1ccc(C(F)(F)F)cc1Nc1ncc2c(n1)N(C)C(=O)N(c1cc(OC)cc(OC)c1)C2 [Compound I-50] | < 100 nM | 101 to 500 nM | –
12 | C=CC(=O)Nc1ccccc1Nc1ncc2c(n1)N(CC(F)F)C(=O)N(c1cc(OC)cc(OC)c1)C2 [Compound I-99] | < 100 nM | 101 to 500 nM | –
13 | C=CC(=O)Nc1ccccc1Nc1ncc2c(n1)N(Cc1ccccc1)C(=O)N(c1c(Cl)c(OC)cc(OC)c1Cl)C2 [Compound I-3] | – | – | EC50 [1]: < 100 nM; IC50 [2, 6]: < 100 nM
14 | C=CC(=O)Nc1nn(C)cc1Nc1ncc2c(n1)N(C)C(=O)N(c1c(Cl)c(OC)cc(OC)c1Cl)C2 [Compound I-117] | < 100 nM | < 100 nM | –
15 | C=CC(=O)Nc1cc(C(=O)NC2CCN(C)CC2)ccc1Nc1ncc2c(n1)N(C)C(=O)N(c1cc(OC)cc(OC)c1)C2 [Compound I-151] | < 100 nM | > 1000 nM | –
16 | C=CC(=O)Nc1cc(C(F)(F)F)ccc1Nc1ncc2c(n1)N(C)C(=O)N(c1cc(OC)cc(OC)c1)C2 [Compound I-42] | < 100 nM | < 100 nM | –
17 | C=CC(=O)Nc1ccccc1Nc1ncc2c(n1)N(CC(F)F)C(=O)N(c1c(F)c(OC)cc(OC)c1F)C2 [Compound I-116] | < 100 nM | < 100 nM | –
18 | C=CC(=O)Nc1ccccc1Nc1ncc2c(n1)N(C1CCCN(C(=O)OC(C)(C)C)C1)C(=O)N(c1cc(OC)cc(OC)c1)C2 (centres unmarked) [Compound I-36] | < 100 nM | 101 to 500 nM | –
19 | C=CC(=O)NC1CN(c2ccncn2)CC1Nc1ncc2c(n1)N(C)C(=O)N(c1c(Cl)c(OC)cc(OC)c1Cl)C2 (centres unmarked) [Compound I-201] | < 100 nM | 101 to 500 nM | –

Row | Compound | IC50 [2, 5] | EC50 [3] | other results
20 | C=CC(=O)NC1COCC1Nc1ncc2c(n1)N(C)C(=O)N(c1c(F)c(OC)cc(OC)c1F)C2 (centres unmarked) [Compound I-198] | < 100 nM | < 100 nM | –
21 | C=CC(=O)N(C)C1COCC1Nc1ncc2c(n1)N(C)C(=O)N(c1c(Cl)c(OC)cc(OC)c1Cl)C2 (centres unmarked) [Compound I-218] | > 1000 nM | > 1000 nM | –
22 | C=CC(=O)Nc1cc(C)ccc1Nc1ncc2cc(-c3c(Cl)c(OC)cc(OC)c3Cl)c(=O)n(C)c2n1 [Compound I-243] | < 100 nM | < 100 nM | –
23 | C=CC(=O)Nc1ccccc1Nc1ncc2c(n1)N(Cc1cccnc1)C(=O)N(c1cc(OC)cc(OC)c1)C2 [Compound I-44] | < 100 nM | < 100 nM | –
24 | C=CC(=O)N[C@H]1CCCC[C@H]1Nc1ncc2c(n1)N(C)C(=O)N(c1cc(OC)c(OC)c(OC)c1)C2 [Compound I-220] | > 1000 nM | > 1000 nM | –
25 | C=CC(=O)Nc1ccccc1Nc1ncc2c(n1)N(Cc1cccc(N)c1)C(=O)N(c1c(Cl)c(OC)cc(OC)c1Cl)C2 [Compound I-26] | – | < 100 nM | IC50 [2, 6]: < 100 nM
26 | C=CC(=O)N[C@H]1CCCC[C@H]1Nc1ncc2c(n1)N(C)C(=O)N(c1c(F)c(OC)cc(OC)c1Br)C2 [Compound I-228] | 101 to 500 nM | 101 to 500 nM | –
27 | C=CC(=O)N[C@H]1CCCC[C@H]1Nc1ncc2cc(-c3c(Cl)c(OC)cc(OC)c3Cl)c(=O)n(C)c2n1 [Compound I-223] | – | < 100 nM | IC50 [2]: < 100 nM
28 | C=CC(=O)Nc1cc(N(C)CCOC)ccc1Nc1ncc2c(n1)N(C)C(=O)N(c1cc(OC)cc(OC)c1)C2 [Compound I-21] | < 100 nM | < 100 nM | –
29 | CCC(=O)Nc1cccc(CN2C(=O)N(c3c(Cl)c(OC)cc(OC)c3Cl)Cc3cnc(Nc4ccccc4NC(=O)CC)nc32)c1 [Compound I-234] | – | – | EC50 [1]: > 1000 nM; IC50 [2, 6]: 101 to 500 nM; duration of action against pFGFR4 signalling after washout [4]: does not show prolonged duration of action; also recorded: does not have PDA
30 | C=CC(=O)Nc1cc(-c2nnn(C)n2)ccc1Nc1ncc2c(n1)N(C)C(=O)N(c1cc(OC)cc(OC)c1)C2 [Compound I-146] | < 100 nM | 101 to 500 nM | –
31 | C=CC(=O)NC1COCC1Nc1ncc2c(n1)N(C)C(=O)N(c1c(Cl)c(OCC)cc(OCC)c1Cl)C2 (centres unmarked) [Compound I-205] | 101 to 500 nM | 101 to 500 nM | –
32 | C=CC(=O)Nc1ccccc1Nc1ncc2c(n1)N(C1COC1)C(=O)N(c1cc(OC)cc(OC)c1)C2 [Compound I-88] | < 100 nM | 101 to 500 nM | –
33 | C=CC(=O)N[C@H]1COC[C@H]1Nc1ncc2c(n1)N(C)C(=O)N(c1c(Cl)c(OC)cc(OC)c1Cl)C2 [Compound I-186] | < 100 nM | < 100 nM | –
34 | C=CC(=O)Nc1ccccc1Nc1ncc2c(n1)NC(=O)N(c1cc(OC)cc(OC)c1)C2 [Compound I-125] | 101 to 500 nM | > 1000 nM | –
35 | C=CC(=O)NC1COCC1Nc1ncc2c(n1)N(Cc1ccn(C)n1)C(=O)N(c1c(Cl)c(OC)cc(OC)c1Cl)C2 (centres unmarked) [Compound I-215] | < 100 nM | < 100 nM | –
36 | C=CC(=O)Nc1ccccc1Nc1ncc2c(n1)N(C)C(=O)N(c1c(Cl)cccc1Cl)C2 [Compound I-83] | 101 to 500 nM | 101 to 500 nM | –
37 | C=CC(=O)NC1COCC1Nc1ncc2c(n1)N(C)C(=O)N(c1c(Cl)c(OC)c(OC)c(OC)c1Cl)C2 (centres unmarked) [Compound I-208] | 501 to 999 nM | > 1000 nM | –
38 | C=CC(=O)NC1COCC1Nc1ncc2c(n1)N(C)C(=O)N(c1cc(C(=O)Nc3cccc(C(C)(C)C#N)c3)ccc1Cl)C2 (centres unmarked) [Compound I-246] | 101 to 500 nM | 101 to 500 nM | –
